Where a SMILES comes first, the peptide text is derived from it. Bridges are numbered along the chain shown (N, C = ends). [ ]: non-standard residue; d: D form. The star is where a group is joined. X1 = NC[C@@H](CC(=O)*)c1cccc(Cl)c1; Dab = NCC[C@H](N)C(=O)O; Dap = NC[C@H](N)C(=O)O
Experiments:
[1] = tested on: A. baumannii ATCC 17978 (SEN) and A. baumannii ATCC BAA-1605 (MDR); assay: Adaptive laboratory evolution (ALE), relative MIC of evolved lines; format: cell-based, Acinetobacter baumannii
Summary of the method: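 Ten parallel populations per antibiotic–ancestor pair were evolved in MHB at 37 °C, starting near 50% growth-inhibiting drug. Every 72 h they were passaged into 0.5–2.5× increasing concentrations, keeping the highest-drug well with OD600 > 0.2.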

[2] = tested on: E. coli BW25113: pUCacrAB; assay: AcrAB-TolC efflux overexpression screen, relative MIC; format: cell-based, Escherichia coli; conditions: pUCacrAB vs empty pUC118 control
Summary of the method: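 Broth microdilution in MHB (supplemented MS for SCH79797), ten-step antibiotic dilutions, 5 × 10^5 cells/mL, 18 h at 37 °C with shaking; MIC is lowest concentration giving background-corrected OD600 < 0.05. Relative MIC as log2 ratio: ΔacrB vs wild-type; pUCacrAB vs empty pUC118 (plasmid strains under 100 µg/mL ampicillin). Mean of 3 biological replicates.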

[3] = AB-MDR (Acinetobacter baumannii ATCC BAA 1605), evolved line 2
[4] = AB-SEN (Acinetobacter baumannii ATCC 17978), evolved line 1
[5] = AB-SEN (Acinetobacter baumannii ATCC 17978), evolved line 3
[6] = AB-SEN (Acinetobacter baumannii ATCC 17978), evolved line 5
[7] = AB-SEN (Acinetobacter baumannii ATCC 17978), evolved line 8
[8] = AB-SEN (Acinetobacter baumannii ATCC 17978), evolved line 9

## CC(C)C[C@@H]1NC(=O)[C@@H](Cc2ccccc2)NC(=O)[C@H](CCN)NC(=O)[C@@H](NC(=O)[C@H](CN)NC(=O)[C@@H](NC(=O)C[C@H](CN)c2cccc(Cl)c2)[C@@H](C)O)CCNC(=O)[C@H]([C@@H](C)O)NC(=O)[C@H](CCN)NC(=O)[C@H](CCN)NC1=O [SPR206] (X1-T[Dap][Dab][Dab][dF]L[Dab][Dab]T; lactam 3-C (inferred); N-terminus assumed)
[1]; AB-MDR (ATCC BAA 1605), evolved line 1, evolved vs ancestor
  Relative MIC: 2048
[1]; AB-MDR (ATCC BAA 1605), evolved line 2, evolved vs ancestor
  Relative MIC: 8192
[1]; AB-MDR (ATCC BAA 1605), evolved line 3, evolved vs ancestor
  Relative MIC: 512
[1]; AB-MDR (ATCC BAA 1605), evolved line 4, evolved vs ancestor
  Relative MIC: 2048
[1]; AB-MDR (ATCC BAA 1605), evolved line 5, evolved vs ancestor
  Relative MIC: 8192
[1]; AB-MDR (ATCC BAA 1605), evolved line 6, evolved vs ancestor
  Relative MIC: 8192
[1]; AB-MDR (ATCC BAA 1605), evolved line 7, evolved vs ancestor
  Relative MIC: 8192
[1]; AB-MDR (ATCC BAA 1605), evolved line 8, evolved vs ancestor
  Relative MIC: 4096
[1]; AB-MDR (ATCC BAA 1605), evolved line 9, evolved vs ancestor
  Relative MIC: 8192
[1]; AB-MDR (ATCC BAA 1605), evolved line 10, evolved vs ancestor
  Relative MIC: 1024
[1]; AB-MDR (Acinetobacter baumannii ATCC BAA 1605), evolved line 1
  Relative MIC: 2048
[1]; [3]
  Relative MIC: 8192
  Relative MIC (log10): 3.913 log10
[1]; AB-MDR (Acinetobacter baumannii ATCC BAA 1605), evolved line 5
  Relative MIC (log10): 3.913 log10
[1]; AB-MDR (Acinetobacter baumannii ATCC BAA 1605), evolved line 6
  Relative MIC (log10): 3.913 log10
[1]; AB-MDR (Acinetobacter baumannii ATCC BAA 1605), evolved line 7
  Relative MIC (log10): 3.913 log10
[1]; AB-MDR (Acinetobacter baumannii ATCC BAA 1605), evolved line 9
  Relative MIC (log10): 3.913 log10
[1]; AB-MDR ATCC BAA 1605, evolved line 1
  MIC of evolved line: 256 µg/mL
[1]; AB-MDR ATCC BAA 1605, evolved line 2
  MIC of evolved line: 1020 µg/mL
[1]; AB-MDR ATCC BAA 1605, evolved line 3
  MIC of evolved line: 64 µg/mL
[1]; AB-MDR ATCC BAA 1605, evolved line 4
  MIC of evolved line: 256 µg/mL
[1]; AB-MDR ATCC BAA 1605, evolved line 5
  MIC of evolved line: 1020 µg/mL
[1]; AB-MDR ATCC BAA 1605, evolved line 6
  MIC of evolved line: 1020 µg/mL
[1]; AB-MDR ATCC BAA 1605, evolved line 7
  MIC of evolved line: 1020 µg/mL
[1]; AB-MDR ATCC BAA 1605, evolved line 8
  MIC of evolved line: 512 µg/mL
[1]; AB-MDR ATCC BAA 1605, evolved line 9
  MIC of evolved line: 1020 µg/mL
[1]; AB-MDR ATCC BAA 1605, evolved line 10
  MIC of evolved line: 128 µg/mL
[1]; AB-SEN (A. baumannii ATCC 17978), evolved line 1 of the given antibiotic
  MIC of evolved line: 256 µg/mL
[1]; AB-SEN (A. baumannii ATCC 17978), evolved line 1 vs ancestor
  Relative MIC: 2048
[1]; AB-SEN (A. baumannii ATCC 17978), evolved line 2 of the given antibiotic
  MIC of evolved line: 1020 µg/mL
[1]; AB-SEN (A. baumannii ATCC 17978), evolved line 2 vs ancestor
  Relative MIC: 8192
[1]; AB-SEN (A. baumannii ATCC 17978), evolved line 3 of the given antibiotic
  MIC of evolved line: 64 µg/mL
[1]; AB-SEN (A. baumannii ATCC 17978), evolved line 3 vs ancestor
  Relative MIC: 512
[1]; AB-SEN (A. baumannii ATCC 17978), evolved line 4 of the given antibiotic
  MIC of evolved line: 256 µg/mL
[1]; AB-SEN (A. baumannii ATCC 17978), evolved line 4 vs ancestor
  Relative MIC: 2048
[1]; AB-SEN (A. baumannii ATCC 17978), evolved line 5 of the given antibiotic
  MIC of evolved line: 1020 µg/mL
[1]; AB-SEN (A. baumannii ATCC 17978), evolved line 5 vs ancestor
  Relative MIC: 8192
[1]; AB-SEN (A. baumannii ATCC 17978), evolved line 6 of the given antibiotic
  MIC of evolved line: 1020 µg/mL
[1]; AB-SEN (A. baumannii ATCC 17978), evolved line 6 vs ancestor
  Relative MIC: 8192
[1]; AB-SEN (A. baumannii ATCC 17978), evolved line 7 of the given antibiotic
  MIC of evolved line: 1020 µg/mL
[1]; AB-SEN (A. baumannii ATCC 17978), evolved line 7 vs ancestor
  Relative MIC: 8192
[1]; AB-SEN (A. baumannii ATCC 17978), evolved line 8 of the given antibiotic
  MIC of evolved line: 512 µg/mL
[1]; AB-SEN (A. baumannii ATCC 17978), evolved line 8 vs ancestor
  Relative MIC: 4096
[1]; AB-SEN (A. baumannii ATCC 17978), evolved line 9 of the given antibiotic
  MIC of evolved line: 1020 µg/mL
[1]; AB-SEN (A. baumannii ATCC 17978), evolved line 9 vs ancestor
  Relative MIC: 8192
[1]; AB-SEN (ATCC 17978), evolved line 10
  MIC of evolved line: 128 µg/mL
[1]; AB-SEN (ATCC 17978), evolved line 10, evolved vs ancestor
  Relative MIC: 1024
[1]; [4]
  Relative MIC: 2048
  Relative MIC (log10): 3.311 log10
[1]; AB-SEN (Acinetobacter baumannii ATCC 17978), evolved line 2
  Relative MIC: 8192
[1]; [5]
  Relative MIC: 512
  Relative MIC (log10): 2.709 log10
[1]; AB-SEN (Acinetobacter baumannii ATCC 17978), evolved line 4
  Relative MIC: 2048
[1]; [6]
  Relative MIC: 8192
  Relative MIC (log10): 3.913 log10
[1]; AB-SEN (Acinetobacter baumannii ATCC 17978), evolved line 6
  Relative MIC: 8192
[1]; [7]
  Relative MIC: 4096
  Relative MIC (log10): 3.612 log10
[1]; [8]
  Relative MIC: 8192
  Relative MIC (log10): 3.913 log10
[1]; AB-SEN (Acinetobacter baumannii ATCC 17978), evolved line 10
  Relative MIC: 1024
[1]; AB-SEN, Acinetobacter baumannii ATCC 17978, evolved line 7
  Relative MIC: 8192
[1]; ALE, A. baumannii ATCC 17978 (AB-SEN), evolved line 1
  Relative MIC: 2048
[1]; ALE, A. baumannii ATCC 17978 (AB-SEN), evolved line 2
  Relative MIC: 8192
[1]; ALE, A. baumannii ATCC 17978 (AB-SEN), evolved line 3
  Relative MIC: 512
[1]; ALE, A. baumannii ATCC 17978 (AB-SEN), evolved line 4
  Relative MIC: 2048
[1]; ALE, A. baumannii ATCC 17978 (AB-SEN), evolved line 5
  Relative MIC: 8192
[1]; ALE, A. baumannii ATCC 17978 (AB-SEN), evolved line 6
  Relative MIC: 8192
[1]; ALE, A. baumannii ATCC 17978 (AB-SEN), evolved line 7
  Relative MIC: 8192
[1]; ALE, A. baumannii ATCC 17978 (AB-SEN), evolved line 8
  Relative MIC: 4096
[1]; ALE, A. baumannii ATCC 17978 (AB-SEN), evolved line 9
  Relative MIC: 8192
[1]; ALE, A. baumannii ATCC 17978 (AB-SEN), evolved line 10
  Relative MIC: 1024
[1]; ALE, A. baumannii ATCC BAA 1605 (AB-MDR), evolved line 1
  Relative MIC: 2048
[1]; ALE, A. baumannii ATCC BAA 1605 (AB-MDR), evolved line 2
  Relative MIC: 8192
[1]; ALE, A. baumannii ATCC BAA 1605 (AB-MDR), evolved line 3
  Relative MIC: 512
[1]; ALE, A. baumannii ATCC BAA 1605 (AB-MDR), evolved line 4
  Relative MIC: 2048
[1]; ALE, A. baumannii ATCC BAA 1605 (AB-MDR), evolved line 5
  Relative MIC: 8192
[1]; ALE, A. baumannii ATCC BAA 1605 (AB-MDR), evolved line 6
  Relative MIC: 8192
[1]; ALE, A. baumannii ATCC BAA 1605 (AB-MDR), evolved line 7
  Relative MIC: 8192
[1]; ALE, A. baumannii ATCC BAA 1605 (AB-MDR), evolved line 8
  Relative MIC: 4096
[1]; ALE, A. baumannii ATCC BAA 1605 (AB-MDR), evolved line 9
  Relative MIC: 8192
[1]; ALE, A. baumannii ATCC BAA 1605 (AB-MDR), evolved line 10
  Relative MIC: 1024
[1]; Acinetobacter baumannii ATCC 17978 (AB-SEN), evolved line 1
  Relative MIC: 2048
[1]; Acinetobacter baumannii ATCC 17978 (AB-SEN), evolved line 2
  Relative MIC: 8192
[1]; Acinetobacter baumannii ATCC 17978 (AB-SEN), evolved line 3
  Relative MIC: 512
[1]; Acinetobacter baumannii ATCC 17978 (AB-SEN), evolved line 4
  Relative MIC: 2048
[1]; Acinetobacter baumannii ATCC 17978 (AB-SEN), evolved line 5
  Relative MIC: 8192
[1]; Acinetobacter baumannii ATCC 17978 (AB-SEN), evolved line 6
  Relative MIC: 8192
[1]; Acinetobacter baumannii ATCC 17978 (AB-SEN), evolved line 7
  Relative MIC: 8192
[1]; Acinetobacter baumannii ATCC 17978 (AB-SEN), evolved line 8
  Relative MIC: 4096
[1]; Acinetobacter baumannii ATCC 17978 (AB-SEN), evolved line 9
  Relative MIC: 8192
[1]; Acinetobacter baumannii ATCC 17978 (AB-SEN), evolved line 10
  Relative MIC: 1024
[1]; Acinetobacter baumannii ATCC BAA 1605 (AB-MDR), evolved line 2
  Relative MIC: 8192
[1]; Acinetobacter baumannii ATCC BAA 1605 (AB-MDR), evolved line 4
  Relative MIC: 2048
[1]; Acinetobacter baumannii ATCC BAA 1605 (AB-MDR), evolved line 5
  Relative MIC: 8192
[1]; Acinetobacter baumannii ATCC BAA 1605 (AB-MDR), evolved line 6
  Relative MIC: 8192
[1]; Acinetobacter baumannii ATCC BAA 1605 (AB-MDR), evolved line 7
  Relative MIC: 8192
[1]; Acinetobacter baumannii ATCC BAA 1605 (AB-MDR), evolved line 8
  Relative MIC: 4096
[1]; Acinetobacter baumannii ATCC BAA 1605 (AB-MDR), evolved line 9
  Relative MIC: 8192
[1]; Acinetobacter baumannii ATCC BAA 1605 (AB-MDR), evolved line 10
  Relative MIC: 1024
[1]; Acinetobacter baumannii ATCC BAA 1605 (AB-MDR), evolved line 1
  Relative MIC: 2048
[1]; Acinetobacter baumannii ATCC BAA 1605 (AB-MDR), evolved line 3
  Relative MIC: 512
[2]; replicate 1
  Relative MIC (log2): 0
[2]; replicate 2
  Relative MIC (log2): 0
[2]; replicate 3
  Relative MIC (log2): 0

Source: publication PMC11845477, “Exploring the principles behind antibiotics with limited resistance” (Nature Communications, 2025)
